Data reported in paper PMC9218946, “Identification of a Subtype-Selective Allosteric Inhibitor of GluN1/GluN3 NMDA Receptors” (Frontiers in Pharmacology, 2022).

What was measured:
Type in all cases: cell-based
GluN1/GluN2A/GluN3A = assay: Whole-cell patch-clamp on HEK-293 cells transiently transfected with GluN1/GluN2A/GluN3A (1:1:2); conditions: 30 μM WZB117; 100 μM glutamate and 100 μM glycine; mixed receptor population
Description: Whole-cell patch-clamp recordings were performed at room temperature (22–25°C) using an EPC-10 amplifier and Patch Master Software (HEKA). Pipettes were pulled from borosilicate glass capillaries (World Precision Instruments), and the resistances were 3–5 MΩ when filled with the intracellular solution. The extracellular solution contained (in mM): 140 NaCl, 2.8 KCl, 1 CaCl2, 10 HEPES and 20 sucrose (290–300 mOsm), pH adjusted to 7.3 using NaOH. The pipette solution contained (in mM): 115 CsF, 10 CsCl, 10 HEPES and 10 BAPTA (280–290 mOsm), pH adjusted to 7.2 using CsOH ([Grand et al., 2018]). When recording in hippocampal neurons, the extracellular solution contained (in mM): 140 NaCl, 5 KCl, 1 CaCl2, 1.25 MgCl2, 10 glucose, and 10 HEPES, and the pH was adjusted to 7.4 using NaOH, and the pipette solution contained (in mM): 140 KCl, 1 MgCl2, 10 EGTA, and 10 HEPES, and the pH was adjusted to 7.2 using KOH ([Xie et al., 2020]). Drug-containing solutions were applied through an RSC-200 Rapid Solution Changer with a 9-tube head (BioLogic Co., France), in which the cell is positioned close to the output of a capillary. […]
Supplementary Figure S3 Effects of WZB117 on currents from HEK-293 cells co-expressing GluN1/GluN2A/GluN3A subunits. […] The data of GluN1/GluN2A were analyzed from Figure 3D. […]

[1] = system: GluN1/GluN3A with mutations W671A and L673A of the GluN3A subunit; assay: Whole-cell patch-clamp on transiently transfected CHO cells, GluN3A pre-M1 alanine mutants
Description: (§1) To establish GluN1/GluN3A stable cell lines, the human GluN1-1a (GenBank: NP_015566.1) and the rat GluN3A (GenBank: NP_612555.1) genes were subcloned into the pcDNA5-FRT-To and pcDNA3.1 vectors, respectively. An EGFP tag was added to the C-terminus of GluN1 or GluN3A using a T2A linker for identification of transfected cells during transient transfection. Point mutations were introduced by site-directed mutagenesis using PrimeSTAR (Takara). The human GluN2A (GenBank: NP_000824.1) gene was subcloned into the pcDNA3.1 vector. The chimeras GluN3A^670-673 MWPL/LEPF and GluN2A^550-553 LEPF/MWPL were generated using In-Fusion HD Cloning kits (Takara). All constructs were confirmed by DNA sequencing (Beijing Genomics Institute).
(§2) The Flp-in T-Rex 293 cell lines (Invitrogen), stably expressing GluN1/GluN3A were grown in DMEM basal medium (Gibco) supplemented with 10% fetal bovine serum (FBS, Invitrogen), 15 μg/ml blasticidin S (Invitrogen), 50 μg/ml hygromycin B (Invitrogen) and 500 μg/ml G418 (Gibco). Expression in cell lines was induced with 1 μg/ml doxycycline (Invitrogen) 24–28 h prior to the experiments. Chinese hamster ovary (CHO) cells were grown in DMEM-F12 basal medium (Gibco) supplemented with 10% FBS. In the study on the action sites of WZB117, all whole-cell patch-clamp recordings were performed on CHO cells. […]

[2] = target: T1, chimera GluN3A^670-673 MWPL/LEPF (UniProt Q05586+Q9R1M7, L673F/M670L/W671E); assay: Whole-cell patch-clamp on transiently transfected CHO cells, GluN3A chimera
T1 construct: expressed in transfected cells; host or cells: CHO, transient
Description: as §1, §2

GluN1/GluN3A receptors = GluN1/GluN3A receptors (UniProt Q05586+Q9R1M7); assay: TEVC recording in Xenopus oocytes expressing GluN1/GluN3A; parameters: expressed in transfected cells; host or cells: Xenopus oocytes (cDNA/cRNA injection); conditions: 30 μM WZB117, Xenopus oocytes
Description: Two-electrode voltage-clamp (TEVC) recordings were performed on Xenopus oocytes expressing various subtypes of recombinant NMDARs. Each oocyte was injected with a mixture of 0.5–1.0 ng cDNAs or cRNAs encoding wild-type (WT) or mutant GluN1 (GluN1-1a or GluN1-4a) and GluN2 (2A-2D) or GluN3 (3A-3B) at a ratio of 1:1. The mutant GluN1-4a ^F484A/T518L was injected together with GluN3B to boost the currents of GluN1/GluN3B receptors, and WT GluN1-1a was used unless otherwise stated. The cRNAs of GluN1-4a, GluN3A and GluN3B were transcribed from corresponding DNAs using the mMESSAGE mMACHINE T7 Ultra kit (Life Technologies) according to the manufacturer’s instructions, and the others not specified were cDNAs. TEVC recording was performed 24–72 h post injection in extracellular solution containing (in mM): 100 NaCl, 0.3 BaCl2, 2.5 KCl, 0.01 DTPA and 5 HEPES, and the pH was adjusted to 7.3 using NaOH. All recordings were carried out at a holding potential of −60 mV.

T1 sequence (Q9R1M7 24-1135 M670L/W671E/L673F, other chains not shown): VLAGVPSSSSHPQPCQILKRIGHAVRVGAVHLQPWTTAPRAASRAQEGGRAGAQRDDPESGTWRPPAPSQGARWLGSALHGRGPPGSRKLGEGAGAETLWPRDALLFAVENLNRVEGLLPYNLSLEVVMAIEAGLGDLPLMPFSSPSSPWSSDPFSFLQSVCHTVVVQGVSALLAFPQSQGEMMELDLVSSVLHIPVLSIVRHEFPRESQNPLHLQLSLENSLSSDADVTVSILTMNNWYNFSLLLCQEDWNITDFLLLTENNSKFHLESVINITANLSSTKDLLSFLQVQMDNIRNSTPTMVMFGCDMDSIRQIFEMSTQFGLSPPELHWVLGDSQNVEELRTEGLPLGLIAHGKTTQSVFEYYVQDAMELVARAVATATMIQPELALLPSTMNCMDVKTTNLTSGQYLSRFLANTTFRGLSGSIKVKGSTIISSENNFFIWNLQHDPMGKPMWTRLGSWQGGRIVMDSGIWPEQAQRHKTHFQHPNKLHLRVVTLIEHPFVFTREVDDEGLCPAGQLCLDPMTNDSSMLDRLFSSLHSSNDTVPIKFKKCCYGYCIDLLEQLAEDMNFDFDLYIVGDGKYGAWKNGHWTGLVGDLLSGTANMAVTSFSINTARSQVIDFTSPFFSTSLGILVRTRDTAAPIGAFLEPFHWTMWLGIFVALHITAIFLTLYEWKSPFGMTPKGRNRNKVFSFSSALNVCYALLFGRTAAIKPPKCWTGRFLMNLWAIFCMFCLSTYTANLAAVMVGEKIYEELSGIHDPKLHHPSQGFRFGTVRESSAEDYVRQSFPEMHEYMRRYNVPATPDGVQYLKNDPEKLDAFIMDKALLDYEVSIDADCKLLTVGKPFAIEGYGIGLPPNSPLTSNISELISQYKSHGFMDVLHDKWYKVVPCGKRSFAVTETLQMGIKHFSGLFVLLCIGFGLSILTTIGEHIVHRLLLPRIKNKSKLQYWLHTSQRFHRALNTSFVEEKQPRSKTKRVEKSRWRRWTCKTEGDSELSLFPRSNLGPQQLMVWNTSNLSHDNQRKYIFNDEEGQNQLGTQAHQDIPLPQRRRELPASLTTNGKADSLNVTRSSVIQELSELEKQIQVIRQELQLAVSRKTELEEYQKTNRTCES
GluN1/GluN3A receptors, sequence (Q9R1M7 24-1135, other chains not shown): as the sequence (Q9R1M7 24-1135 M670L/W671E/L673F, other chains not shown) above, with L647M, E648W, F650L counted along it

- inhibition on chimera [2]: greatly reduced
- inhibition of currents (GluN1/GluN3A receptors): potently suppressed
SMILES: O=C(Oc1cccc(F)c1OC(=O)c1cccc(O)c1)c1cccc(O)c1 [WZB117, 3-fluoro-1,2-phenylene bis(3-hydroxybenzoate)]
- I drug/I cotrol (GluN1/GluN2A/GluN3A): 0.22 ± 0.04
- influence of mutations on inhibitory effect [1]: significantly influenced the inhibitory effect
